According to ChEMBL document CHEMBL1201862, “PubChem BioAssay data set” (2004):
Activity calls are given as the source filed them.

Legend:
Type in all cases: functional
[1] = biological target: T1, Replicative DNA helicase DnaB (Mycobacterium tuberculosis, UniProt P9WMR3); experiment: DnaB intein splicing inhibitors, dose response, biochemical, cell-free fluorescence (AID 449749)
T1 sequence (P9WMR3 whole entry): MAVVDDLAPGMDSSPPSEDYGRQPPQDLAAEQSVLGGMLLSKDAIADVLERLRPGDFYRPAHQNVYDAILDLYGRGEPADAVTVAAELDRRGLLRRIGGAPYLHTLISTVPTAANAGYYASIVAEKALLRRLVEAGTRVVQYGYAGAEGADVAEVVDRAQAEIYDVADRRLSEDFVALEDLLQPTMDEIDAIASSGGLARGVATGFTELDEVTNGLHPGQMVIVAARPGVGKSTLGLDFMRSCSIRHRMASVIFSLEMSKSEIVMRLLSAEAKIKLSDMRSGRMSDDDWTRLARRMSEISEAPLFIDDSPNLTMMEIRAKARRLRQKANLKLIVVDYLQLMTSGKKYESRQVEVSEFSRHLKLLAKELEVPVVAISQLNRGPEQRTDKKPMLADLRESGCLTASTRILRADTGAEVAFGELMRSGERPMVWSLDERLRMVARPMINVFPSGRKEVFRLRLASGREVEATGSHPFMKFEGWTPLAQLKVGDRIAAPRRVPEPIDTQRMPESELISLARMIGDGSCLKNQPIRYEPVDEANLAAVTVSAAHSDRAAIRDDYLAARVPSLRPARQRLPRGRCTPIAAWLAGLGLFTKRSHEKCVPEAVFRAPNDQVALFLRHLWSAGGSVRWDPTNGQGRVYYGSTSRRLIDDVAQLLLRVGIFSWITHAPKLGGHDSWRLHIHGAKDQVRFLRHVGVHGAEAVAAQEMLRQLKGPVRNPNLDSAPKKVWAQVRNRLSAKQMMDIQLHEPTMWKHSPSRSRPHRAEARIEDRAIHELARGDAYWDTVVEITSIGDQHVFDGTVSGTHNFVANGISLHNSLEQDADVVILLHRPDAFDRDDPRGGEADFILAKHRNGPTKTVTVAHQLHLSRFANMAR

[2] = biological target: Tyrosine-protein kinase JAK2 (Homo sapiens, UniProt O60674);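 also: JAK2 tested as one member of a kinase panel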
[3] = biological target: Serine/threonine-protein kinase TBK1 (Homo sapiens, UniProt Q9UHD2); experiment: Navigating the Kinome. Panel member name: TBK1
[4] = biological target: Protein kinase C delta type (Homo sapiens, UniProt Q05655)
[5] = biological target: Serine/threonine-protein kinase D2 (Homo sapiens, UniProt Q9BZL6);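 also: measured against PRKD2 as one member of a kinome-wide kinase profiling panel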
[6] = biological target: Calcium/calmodulin-dependent protein kinase type II subunit gamma (Homo sapiens, UniProt Q13555)
[7] = biological target: Serine/threonine-protein kinase pim-1 (Homo sapiens, UniProt P11309)
[8] = biological target: Tyrosine-protein kinase BTK (Homo sapiens, UniProt Q06187)
[9] = biological target: Mast/stem cell growth factor receptor Kit (Homo sapiens, UniProt P10721);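 also: KIT entry within a kinase panel assay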
[10] = biological target: Mitogen-activated protein kinase 9 (Homo sapiens, UniProt P45984);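 also: value from a kinome panel profiling assay, MAPK9 panel entry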
[11] = biological target: Serine/threonine-protein kinase N2 (Homo sapiens, UniProt Q16513)
Chain of Serine/threonine-protein kinase N2 (Q16513 whole entry): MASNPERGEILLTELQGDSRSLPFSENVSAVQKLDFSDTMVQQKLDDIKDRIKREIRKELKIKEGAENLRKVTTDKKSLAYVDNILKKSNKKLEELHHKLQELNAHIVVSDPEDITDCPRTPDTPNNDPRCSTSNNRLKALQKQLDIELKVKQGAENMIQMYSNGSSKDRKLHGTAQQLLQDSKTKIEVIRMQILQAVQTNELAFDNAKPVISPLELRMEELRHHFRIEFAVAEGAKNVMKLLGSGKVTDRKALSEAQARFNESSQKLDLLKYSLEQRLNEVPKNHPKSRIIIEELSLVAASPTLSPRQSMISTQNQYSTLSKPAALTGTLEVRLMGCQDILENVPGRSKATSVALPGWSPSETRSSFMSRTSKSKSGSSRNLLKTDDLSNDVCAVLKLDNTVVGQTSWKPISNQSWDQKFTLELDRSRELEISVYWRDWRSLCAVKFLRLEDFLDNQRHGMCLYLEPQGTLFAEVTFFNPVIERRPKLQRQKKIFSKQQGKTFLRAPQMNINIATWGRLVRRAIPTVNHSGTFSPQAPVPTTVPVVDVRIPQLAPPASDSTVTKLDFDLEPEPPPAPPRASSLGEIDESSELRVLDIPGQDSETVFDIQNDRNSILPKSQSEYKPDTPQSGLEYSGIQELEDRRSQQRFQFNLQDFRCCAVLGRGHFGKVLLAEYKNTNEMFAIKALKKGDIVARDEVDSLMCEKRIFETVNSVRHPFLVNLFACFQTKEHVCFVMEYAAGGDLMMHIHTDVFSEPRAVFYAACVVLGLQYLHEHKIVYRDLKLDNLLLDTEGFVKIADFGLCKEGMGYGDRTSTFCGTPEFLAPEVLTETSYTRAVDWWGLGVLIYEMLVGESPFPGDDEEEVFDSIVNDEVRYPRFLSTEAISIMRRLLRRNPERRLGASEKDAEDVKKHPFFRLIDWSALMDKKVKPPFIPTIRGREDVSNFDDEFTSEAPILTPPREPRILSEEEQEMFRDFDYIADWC

[12] = biological target: Protein-tyrosine kinase 2-beta (Homo sapiens, UniProt Q14289)
[13] = biological target: Non-receptor tyrosine-protein kinase TYK2 (Homo sapiens, UniProt P29597)
[14] = biological target: Protein kinase C gamma type (Homo sapiens, UniProt P05129)
[15] = biological target: Tyrosine-protein kinase Srms (Homo sapiens, UniProt Q9H3Y6);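 also: SRMS measured as one member of a kinome-wide kinase profiling panel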
[16] = biological target: Mitogen-activated protein kinase kinase kinase kinase 2 (Homo sapiens, UniProt Q12851);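 also: measured as one member of a kinome-wide kinase panel, with MAP4K2 as the panel entry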
[17] = biological target: Dual specificity tyrosine-phosphorylation-regulated kinase 3 (Homo sapiens, UniProt O43781);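 also: measured as one member of a broad kinase panel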
[18] = biological target: MAP kinase-activated protein kinase 3 (Homo sapiens, UniProt Q16644);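 also: value comes from a kinome-wide profiling panel in which MAPKAPK3 is one of the panel members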
[19] = biological target: Calcium/calmodulin-dependent protein kinase type II subunit beta (Homo sapiens, UniProt Q13554)
Chain of Calcium/calmodulin-dependent protein kinase type II subunit beta (Q13554 whole entry): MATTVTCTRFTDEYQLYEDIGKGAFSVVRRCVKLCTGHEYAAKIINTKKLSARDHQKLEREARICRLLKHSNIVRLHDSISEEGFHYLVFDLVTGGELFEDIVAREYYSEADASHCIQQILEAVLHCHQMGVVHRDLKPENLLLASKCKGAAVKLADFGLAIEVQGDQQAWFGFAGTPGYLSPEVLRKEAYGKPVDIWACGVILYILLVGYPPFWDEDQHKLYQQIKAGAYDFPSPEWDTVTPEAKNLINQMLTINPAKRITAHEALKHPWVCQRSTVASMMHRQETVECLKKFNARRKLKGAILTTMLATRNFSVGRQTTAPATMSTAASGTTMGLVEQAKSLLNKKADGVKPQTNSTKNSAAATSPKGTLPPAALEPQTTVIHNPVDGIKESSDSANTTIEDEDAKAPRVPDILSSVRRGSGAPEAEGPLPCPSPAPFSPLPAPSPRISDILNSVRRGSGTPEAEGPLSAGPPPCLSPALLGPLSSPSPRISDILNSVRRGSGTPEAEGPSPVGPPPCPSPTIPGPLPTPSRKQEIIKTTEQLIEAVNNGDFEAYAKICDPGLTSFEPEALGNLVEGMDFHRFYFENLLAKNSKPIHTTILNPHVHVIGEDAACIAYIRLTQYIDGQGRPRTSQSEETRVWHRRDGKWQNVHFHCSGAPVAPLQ

[20] = biological target: Ephrin type-A receptor 2 (Homo sapiens, UniProt P29317);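 also: EPHA2 tested as one member of a kinome-wide kinase panel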
Chain of Ephrin type-A receptor 2 (P29317 whole entry): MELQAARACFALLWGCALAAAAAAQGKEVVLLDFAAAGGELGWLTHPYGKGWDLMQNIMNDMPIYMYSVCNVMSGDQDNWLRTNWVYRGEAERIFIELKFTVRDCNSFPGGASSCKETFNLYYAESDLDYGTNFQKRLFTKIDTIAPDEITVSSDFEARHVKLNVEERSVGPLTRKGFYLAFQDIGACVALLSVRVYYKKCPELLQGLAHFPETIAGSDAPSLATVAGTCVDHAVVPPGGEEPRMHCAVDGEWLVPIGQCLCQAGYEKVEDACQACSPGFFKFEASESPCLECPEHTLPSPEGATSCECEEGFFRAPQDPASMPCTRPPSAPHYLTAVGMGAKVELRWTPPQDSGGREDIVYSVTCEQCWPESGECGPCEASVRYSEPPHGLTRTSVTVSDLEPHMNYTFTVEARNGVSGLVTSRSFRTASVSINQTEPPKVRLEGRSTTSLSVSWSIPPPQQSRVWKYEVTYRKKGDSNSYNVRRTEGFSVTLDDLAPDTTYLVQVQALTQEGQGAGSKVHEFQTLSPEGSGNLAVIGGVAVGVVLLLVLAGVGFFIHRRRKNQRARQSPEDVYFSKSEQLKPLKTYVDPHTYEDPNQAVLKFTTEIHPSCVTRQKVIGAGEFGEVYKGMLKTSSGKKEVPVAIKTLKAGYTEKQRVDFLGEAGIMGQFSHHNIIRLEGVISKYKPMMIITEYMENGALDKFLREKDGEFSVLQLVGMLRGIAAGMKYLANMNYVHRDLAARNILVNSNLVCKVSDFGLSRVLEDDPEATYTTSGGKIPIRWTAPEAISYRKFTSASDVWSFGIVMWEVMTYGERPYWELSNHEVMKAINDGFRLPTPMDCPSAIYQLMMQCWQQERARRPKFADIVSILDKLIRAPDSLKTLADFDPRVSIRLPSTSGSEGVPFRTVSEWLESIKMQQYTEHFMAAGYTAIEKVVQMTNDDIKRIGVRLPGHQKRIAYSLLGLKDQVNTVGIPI

[21] = biological target: Misshapen-like kinase 1 (Homo sapiens, UniProt Q8N4C8);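 also: kinome panel screen with MINK as the panel member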
[22] = biological target: Focal adhesion kinase 1 (Homo sapiens, UniProt Q05397);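 also: measured as one member of a kinome panel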
[23] = biological target: Platelet-derived growth factor receptor alpha (Homo sapiens, UniProt P16234); experiment: Navigating the Kinome. Panel member name: PDGFRA
[24] = biological target: Leucine-rich repeat serine/threonine-protein kinase 2 (Homo sapiens, UniProt Q5S007);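 also: value from a broad kinome-wide panel profiling study in which LRRK2 was one of the kinases tested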
[25] = biological target: Interleukin-1 receptor-associated kinase 4 (Homo sapiens, UniProt Q9NWZ3)
[26] = biological target: Rho-associated protein kinase 1 (Homo sapiens, UniProt Q13464);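 also: measured within a broad kinome-wide panel profiling many kinases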
[27] = biological target: Serine/threonine-protein kinase DCLK1 (Homo sapiens, UniProt O15075);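 also: affinity for DCLK1 (listed as DCAMKL1) measured as one member of a kinome-wide kinase profiling panel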
Chain of Serine/threonine-protein kinase DCLK1 (O15075 whole entry): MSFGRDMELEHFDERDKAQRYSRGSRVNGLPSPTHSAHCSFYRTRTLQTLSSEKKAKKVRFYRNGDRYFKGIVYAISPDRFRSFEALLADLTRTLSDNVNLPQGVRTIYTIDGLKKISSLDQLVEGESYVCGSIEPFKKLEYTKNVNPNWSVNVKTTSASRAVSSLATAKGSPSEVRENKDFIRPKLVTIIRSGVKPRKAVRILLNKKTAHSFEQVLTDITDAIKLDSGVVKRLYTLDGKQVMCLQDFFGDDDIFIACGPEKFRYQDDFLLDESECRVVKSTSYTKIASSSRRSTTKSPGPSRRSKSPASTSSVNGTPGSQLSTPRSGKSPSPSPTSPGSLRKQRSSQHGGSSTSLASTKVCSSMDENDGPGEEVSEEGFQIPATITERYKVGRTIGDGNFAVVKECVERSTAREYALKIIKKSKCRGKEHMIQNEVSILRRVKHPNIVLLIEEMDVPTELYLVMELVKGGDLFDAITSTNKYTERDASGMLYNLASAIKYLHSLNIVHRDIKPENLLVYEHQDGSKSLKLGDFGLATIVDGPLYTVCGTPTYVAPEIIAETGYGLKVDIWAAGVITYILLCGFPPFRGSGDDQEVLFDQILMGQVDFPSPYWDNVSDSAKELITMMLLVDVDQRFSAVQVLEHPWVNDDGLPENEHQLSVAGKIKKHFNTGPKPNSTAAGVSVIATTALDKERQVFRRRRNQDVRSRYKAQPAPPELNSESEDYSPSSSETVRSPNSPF

[28] = biological target: Fibroblast growth factor receptor 3 (Homo sapiens, UniProt P22607)
[29] = biological target: Glycogen synthase kinase-3 beta (Homo sapiens, UniProt P49841);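 also: value comes from a broad kinome profiling panel, with GSK3B as the panel member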
Chain of Glycogen synthase kinase-3 beta (P49841 whole entry): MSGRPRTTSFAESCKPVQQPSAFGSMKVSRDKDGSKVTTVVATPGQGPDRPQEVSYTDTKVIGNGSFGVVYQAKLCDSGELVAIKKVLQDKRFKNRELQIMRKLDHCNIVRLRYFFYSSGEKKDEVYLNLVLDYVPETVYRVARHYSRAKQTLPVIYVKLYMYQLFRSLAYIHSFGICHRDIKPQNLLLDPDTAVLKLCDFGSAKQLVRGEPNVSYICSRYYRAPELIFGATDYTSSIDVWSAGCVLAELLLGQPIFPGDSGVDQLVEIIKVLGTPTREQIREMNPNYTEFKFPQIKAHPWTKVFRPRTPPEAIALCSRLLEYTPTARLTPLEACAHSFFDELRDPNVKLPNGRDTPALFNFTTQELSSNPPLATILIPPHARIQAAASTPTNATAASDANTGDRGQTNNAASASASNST

[30] = biological target: Macrophage-stimulating protein receptor (Homo sapiens, UniProt Q04912); experiment: Navigating the Kinome. Panel member name: MST1R
[31] = biological target: Dual specificity tyrosine-phosphorylation-regulated kinase 1A (Homo sapiens, UniProt Q13627);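 also: measured against DYRK1A as one member of a broad kinome profiling panel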
[32] = biological target: Inhibitor of nuclear factor kappa-B kinase subunit epsilon (Homo sapiens, UniProt Q14164); experiment: Navigating the Kinome. Panel member name: IKBKE
Chain of Inhibitor of nuclear factor kappa-B kinase subunit epsilon (Q14164 whole entry): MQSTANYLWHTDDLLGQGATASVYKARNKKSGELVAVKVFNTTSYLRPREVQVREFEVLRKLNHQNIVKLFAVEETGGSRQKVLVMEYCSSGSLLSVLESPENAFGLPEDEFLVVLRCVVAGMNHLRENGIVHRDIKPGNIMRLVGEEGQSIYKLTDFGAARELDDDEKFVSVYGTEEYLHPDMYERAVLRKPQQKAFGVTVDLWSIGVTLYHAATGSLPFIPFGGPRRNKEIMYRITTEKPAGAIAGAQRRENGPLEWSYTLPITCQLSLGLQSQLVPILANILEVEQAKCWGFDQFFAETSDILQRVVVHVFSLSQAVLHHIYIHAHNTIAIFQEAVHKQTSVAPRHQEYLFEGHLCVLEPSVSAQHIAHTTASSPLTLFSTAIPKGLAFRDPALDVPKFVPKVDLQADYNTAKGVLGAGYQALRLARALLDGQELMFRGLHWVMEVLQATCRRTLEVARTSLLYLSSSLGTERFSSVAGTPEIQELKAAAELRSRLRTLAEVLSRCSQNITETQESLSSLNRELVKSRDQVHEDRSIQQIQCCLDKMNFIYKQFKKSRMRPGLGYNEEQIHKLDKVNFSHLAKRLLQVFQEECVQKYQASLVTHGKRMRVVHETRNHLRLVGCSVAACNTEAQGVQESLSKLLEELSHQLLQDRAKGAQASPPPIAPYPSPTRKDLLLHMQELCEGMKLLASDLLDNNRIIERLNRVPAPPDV

[33] = biological target: Mitogen-activated protein kinase 10 (Homo sapiens, UniProt P53779); experiment: Navigating the Kinome. Panel member name: MAPK10
Chain of Mitogen-activated protein kinase 10 (P53779 whole entry): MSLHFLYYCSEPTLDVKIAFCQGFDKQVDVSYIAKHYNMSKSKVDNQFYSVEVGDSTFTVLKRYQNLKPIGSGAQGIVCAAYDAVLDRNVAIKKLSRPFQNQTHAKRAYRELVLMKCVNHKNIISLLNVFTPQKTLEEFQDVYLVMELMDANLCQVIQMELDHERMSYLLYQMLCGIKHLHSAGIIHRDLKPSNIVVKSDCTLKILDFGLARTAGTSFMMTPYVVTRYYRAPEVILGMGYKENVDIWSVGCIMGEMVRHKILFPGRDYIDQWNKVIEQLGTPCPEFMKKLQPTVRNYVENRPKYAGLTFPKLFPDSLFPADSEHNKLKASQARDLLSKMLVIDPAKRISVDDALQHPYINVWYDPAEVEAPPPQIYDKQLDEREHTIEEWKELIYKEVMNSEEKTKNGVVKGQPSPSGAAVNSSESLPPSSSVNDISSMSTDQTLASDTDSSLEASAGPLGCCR

[34] = biological target: Tyrosine-protein kinase receptor UFO (Homo sapiens, UniProt P30530)

**Q.** Which AC50 [1] does the source give for `CCCn1nc([N+](=O)[O-])c(C(C#N)c2nc3ccccc3s2)c(Cl)c1=O` (centres undefined) here?
**A.** 4720 nM (active)

**Q.** Which Ki [2] does the source give for `NCCCn1cc(-c2cc(-c3cc4ccccc4s3)c3[nH]ncc3c2)c2nc(N)ncc21` here?
**A.** > 2000 nM (inactive)

**Q.** What about the Ki [3] of the same compound?
**A.** > 1580 nM (inactive)

**Q.** What about the Ki [4] of the same compound?
**A.** 316 nM (active)

**Q.** What about the Ki [5] of the same compound?
**A.** 50.1 nM (active)

**Q.** What about the Ki [6] of the same compound?
**A.** 501 nM (active)

**Q.** What about the Ki [7] of the same compound?
**A.** > 3160 nM (inactive)

**Q.** What about the Ki [8] of the same compound?
**A.** > 3980 nM (inactive)

**Q.** And the Ki [9]?
**A.** > 3160 nM (inactive)

**Q.** And the Ki [10]?
**A.** > 2000 nM (inactive)

**Q.** What about the Ki [11] of the same compound?
**A.** 316 nM (active)

**Q.** What about the Ki [12] of the same compound?
**A.** 251 nM (active)

**Q.** What about the Ki [13] of the same compound?
**A.** > 2000 nM (inactive)

**Q.** What about the Ki [14] of the same compound?
**A.** 200 nM (active)

**Q.** What about the Ki [15] of the same compound?
**A.** > 1580 nM (inactive)

**Q.** And the Ki [16]?
**A.** > 1580 nM (inactive)

**Q.** What about the Ki [17] of the same compound?
**A.** 100 nM (active)

**Q.** What about the Ki [18] of the same compound?
**A.** 1580 nM (active)

**Q.** What about the Ki [19] of the same compound?
**A.** 3160 nM (active)

**Q.** And the Ki [20]?
**A.** > 3160 nM (inactive)

**Q.** And the Ki [21]?
**A.** 100 nM (active)

**Q.** What about the Ki [22] of the same compound?
**A.** > 5010 nM (inactive)

**Q.** And the Ki [23]?
**A.** > 2000 nM (inactive)

**Q.** What about the Ki [24] of the same compound?
**A.** 251 nM (active)

**Q.** What about the Ki [25] of the same compound?
**A.** 7940 nM (active)

**Q.** What about the Ki [26] of the same compound?
**A.** 79.4 nM (active)

**Q.** What about the Ki [27] of the same compound?
**A.** 2510 nM (active)

**Q.** And the Ki [28]?
**A.** > 2000 nM (inactive)

**Q.** What about the Ki [29] of the same compound?
**A.** 316 nM (active)

**Q.** What about the Ki [30] of the same compound?
**A.** > 3980 nM (inactive)

**Q.** What about the Ki [31] of the same compound?
**A.** 1000 nM (active)

**Q.** What about the Ki [32] of the same compound?
**A.** > 3160 nM (inactive)

**Q.** And the Ki [33]?
**A.** > 3160 nM (inactive)

**Q.** And the Ki [34]?
**A.** 501 nM (active)
